Key:
Human μ-opioid (MOP) = target: T1, Human μ-opioid (MOP) (Homo sapiens, UniProt P35372); experiment: Radioligand binding, human μ-opioid (MOP) membranes, FlashPlate, [3H]-Naloxone; conditions: compound at 10 μM, [3H]-Naloxone
T1 construct: purchased Perkin Elmer Biosignal
Procedure, shortened: (§1)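 Cloned human receptor membranes were coated onto FlashPlate wells and incubated with radioligand and compound (added from a 0.5 mM DMSO daughter plate) for 1 hour at room temperature in the dark. Scintillation counting gave percent inhibition, with DMSO defining total and reference ligand defining non-specific binding.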

Human Melanocortin (MC4) = target: T2, Human Melanocortin (MC4) (Homo sapiens, UniProt P32245); experiment: Radioligand binding, human melanocortin MC4 membranes, FlashPlate, [125I]-NDP-αMSH; conditions: compound at 10 μM, [125I]-NDP-αMSH
T2 construct: purchased Perkin Elmer Biosignal
Procedure, shortened: as §1

Human δ-opioid (DOP) = target: T3, Human δ-opioid (DOP) (Homo sapiens, UniProt P41143); experiment: Radioligand binding, human δ-opioid (DOP) membranes, FlashPlate, [3H]-Bremazocine; conditions: compound at 10 μM, [3H]-Bremazocine
T3 construct: purchased Perkin Elmer Biosignal
Procedure, shortened: as §1

Human κ-Opioid (KOP) = target: T4, Human κ-Opioid (KOP) (Homo sapiens, UniProt P41145); experiment: Radioligand binding, human κ-opioid (KOP) membranes, filtration, [3H]-Diprenorphine; conditions: compound at 10 μM, [3H]-Diprenorphine
T4 construct: purchased Perkin Elmer Biosignal
Procedure, shortened: (§2)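 Percent inhibition of radioligand binding measured on recombinant human membranes: NK1 with [125I]-Substance P, KOP with [3H]-Diprenorphine. Incubation 1 h at room temperature, then harvest onto 0.3% PEI-soaked filters, cold Tris-HCl pH 7.4 washes and scintillation counting; non-specific binding from reference ligand wells.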

Human melanocortin (MC5) = target: T5, Human melanocortin (MC5) (Homo sapiens, UniProt P33032); experiment: Radioligand binding, human melanocortin MC5 membranes, FlashPlate, [125I]-NDP-αMSH; conditions: compound at 10 μM, [125I]-NDP-αMSH
T5 construct: purchased Perkin Elmer Biosignal
Procedure, shortened: as §1

[1] = target: T6, Human neuropeptide Y (NPY-Y1) (Homo sapiens, UniProt P25929); experiment: Radioligand binding, human neuropeptide Y NPY-Y1 membranes, FlashPlate, [125I]-PYY; conditions: compound at 10 μM, [125I]-PYY
T6 construct: purchased Perkin Elmer Biosignal
T6 sequence (P25929 1-384): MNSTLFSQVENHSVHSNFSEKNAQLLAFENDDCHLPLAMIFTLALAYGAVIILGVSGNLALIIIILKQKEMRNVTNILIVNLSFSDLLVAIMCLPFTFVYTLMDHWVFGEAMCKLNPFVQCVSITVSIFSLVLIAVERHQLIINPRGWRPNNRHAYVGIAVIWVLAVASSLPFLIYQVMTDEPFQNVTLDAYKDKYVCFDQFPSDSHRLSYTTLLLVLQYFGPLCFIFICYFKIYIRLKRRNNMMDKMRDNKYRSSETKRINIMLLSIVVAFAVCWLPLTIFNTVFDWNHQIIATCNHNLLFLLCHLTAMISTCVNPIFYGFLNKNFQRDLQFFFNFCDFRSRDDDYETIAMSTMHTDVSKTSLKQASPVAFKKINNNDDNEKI
Procedure, shortened: as §1

Human opioid (ORL1) = target: T7, Human opioid (ORL1) (Homo sapiens, UniProt P41146); experiment: Radioligand binding, human opioid ORL1 membranes, FlashPlate, [125I]-Nociceptin; conditions: compound at 10 μM, [125I]-Nociceptin
T7 construct: purchased Perkin Elmer Biosignal
Procedure, shortened: as §1

Mouse urotensin (mUR2) = target: T8, Mouse urotensin (mUR2) (Mus musculus, UniProt Q8VIH9); experiment: Radioligand binding, mouse urotensin mUR2 membranes, FlashPlate, [125I]-Urotensin II; conditions: compound at 10 μM, [125I]-Urotensin II
T8 construct: purchased Perkin Elmer Biosignal
T8 sequence (Q8VIH9 1-385): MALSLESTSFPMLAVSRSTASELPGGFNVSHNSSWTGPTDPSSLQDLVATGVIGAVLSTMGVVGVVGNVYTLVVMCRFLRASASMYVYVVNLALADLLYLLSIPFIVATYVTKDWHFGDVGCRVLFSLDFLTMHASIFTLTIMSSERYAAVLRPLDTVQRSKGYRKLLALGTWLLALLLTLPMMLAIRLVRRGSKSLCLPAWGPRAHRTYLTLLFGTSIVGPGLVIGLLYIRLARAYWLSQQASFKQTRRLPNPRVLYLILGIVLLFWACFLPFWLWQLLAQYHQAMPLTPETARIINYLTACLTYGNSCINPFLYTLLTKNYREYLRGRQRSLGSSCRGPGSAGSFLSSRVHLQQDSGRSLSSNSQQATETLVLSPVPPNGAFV
Procedure, shortened: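 Cloned mouse urotensin (mUR2) receptor membranes from Perkin Elmer Biosignal were immobilized in FlashPlate microplates using a proprietary coating. Each well got 19.5 μl buffer, then 0.5 μl of DMSO, reference ligand, or compound. Adding 5 μl of [125I]-Urotensin II, diluted to 5× final concentration in binding buffer, started binding. Plates were sealed with TopSeal-A and incubated 1 hour at room temperature in the dark. Wells were counted for 30 seconds each on a TopCount after a 60-second delay, and percentage inhibition was calculated.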

[2] = target: T9, Human melanin-concentrating hormone (MCH1) (Homo sapiens, UniProt Q99705); experiment: Radioligand binding, human melanin-concentrating hormone MCH1 membranes, FlashPlate, [125I]-S36057; conditions: compound at 10 μM; for A6: inhibition of radioligand binding, human melanin-concentrating hormone (MCH1): [125I]-S36057
T9 construct: purchased Perkin Elmer Biosignal
Procedure, shortened: as §1

Human Melanocortin (MC3) = target: T10, Human Melanocortin (MC3) (Homo sapiens, UniProt P41968); experiment: Radioligand binding, human melanocortin MC3 membranes, FlashPlate, [125I]-NDP-αMSH; conditions: compound at 10 μM, [125I]-NDP-αMSH
T10 construct: purchased Perkin Elmer Biosignal
Procedure, shortened: as §1

Human neurokinin (NK1) = target: T11, Human neurokinin (NK1) (Homo sapiens, UniProt P25103); experiment: Radioligand binding, human neurokinin NK1 membranes, filtration, [125I]-Substance P; conditions: compound at 10 μM, [125I]-Substance P
T11 construct: purchased Perkin Elmer Biosignal
Procedure, shortened: as §2

T2 sequence (P32245 whole entry): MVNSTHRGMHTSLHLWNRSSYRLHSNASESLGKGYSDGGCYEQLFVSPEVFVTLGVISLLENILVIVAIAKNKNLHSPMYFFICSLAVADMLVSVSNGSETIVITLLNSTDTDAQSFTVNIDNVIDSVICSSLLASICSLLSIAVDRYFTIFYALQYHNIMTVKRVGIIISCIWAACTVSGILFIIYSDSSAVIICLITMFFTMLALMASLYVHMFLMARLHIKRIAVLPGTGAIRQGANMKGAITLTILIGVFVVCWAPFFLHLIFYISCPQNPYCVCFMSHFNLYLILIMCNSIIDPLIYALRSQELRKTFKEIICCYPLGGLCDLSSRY
T7 sequence (P41146 whole entry): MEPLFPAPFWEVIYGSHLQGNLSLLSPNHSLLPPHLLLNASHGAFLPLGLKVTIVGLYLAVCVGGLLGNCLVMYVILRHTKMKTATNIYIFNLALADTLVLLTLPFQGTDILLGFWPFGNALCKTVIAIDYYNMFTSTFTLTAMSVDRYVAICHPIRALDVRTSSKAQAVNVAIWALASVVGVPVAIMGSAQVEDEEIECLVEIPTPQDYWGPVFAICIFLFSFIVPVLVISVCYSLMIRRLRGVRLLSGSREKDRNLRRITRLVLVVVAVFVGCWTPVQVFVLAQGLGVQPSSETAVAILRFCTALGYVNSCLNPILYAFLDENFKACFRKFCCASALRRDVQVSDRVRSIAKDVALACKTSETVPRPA
T3 sequence (P41143 whole entry): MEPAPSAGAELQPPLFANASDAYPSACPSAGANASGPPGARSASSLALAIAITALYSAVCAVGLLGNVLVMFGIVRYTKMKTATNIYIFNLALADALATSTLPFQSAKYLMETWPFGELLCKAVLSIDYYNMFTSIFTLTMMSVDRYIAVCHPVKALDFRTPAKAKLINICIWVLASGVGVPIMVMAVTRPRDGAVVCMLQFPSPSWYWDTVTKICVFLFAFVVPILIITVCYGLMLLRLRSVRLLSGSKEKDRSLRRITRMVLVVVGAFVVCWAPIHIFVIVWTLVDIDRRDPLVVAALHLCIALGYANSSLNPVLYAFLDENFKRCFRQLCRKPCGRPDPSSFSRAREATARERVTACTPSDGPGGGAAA
T4 sequence (P41145 whole entry): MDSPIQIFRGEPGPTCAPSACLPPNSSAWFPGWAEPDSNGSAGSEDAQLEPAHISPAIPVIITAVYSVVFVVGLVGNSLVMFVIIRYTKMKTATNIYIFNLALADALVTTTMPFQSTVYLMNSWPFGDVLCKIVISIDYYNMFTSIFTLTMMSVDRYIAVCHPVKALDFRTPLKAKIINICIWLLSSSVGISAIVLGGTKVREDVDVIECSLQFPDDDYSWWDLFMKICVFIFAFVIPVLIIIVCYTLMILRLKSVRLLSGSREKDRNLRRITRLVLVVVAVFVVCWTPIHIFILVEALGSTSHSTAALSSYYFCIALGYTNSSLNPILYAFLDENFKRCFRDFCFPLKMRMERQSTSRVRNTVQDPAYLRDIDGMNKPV
T10 sequence (P41968 whole entry): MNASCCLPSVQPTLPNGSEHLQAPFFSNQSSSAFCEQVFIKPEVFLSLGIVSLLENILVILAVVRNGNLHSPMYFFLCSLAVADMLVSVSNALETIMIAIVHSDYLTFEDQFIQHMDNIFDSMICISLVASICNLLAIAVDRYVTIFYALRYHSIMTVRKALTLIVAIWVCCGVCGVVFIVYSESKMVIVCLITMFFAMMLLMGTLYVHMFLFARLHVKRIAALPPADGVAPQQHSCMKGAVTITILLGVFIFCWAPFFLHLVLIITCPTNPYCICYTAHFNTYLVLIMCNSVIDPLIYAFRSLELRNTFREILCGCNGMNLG
T1 sequence (P35372 whole entry): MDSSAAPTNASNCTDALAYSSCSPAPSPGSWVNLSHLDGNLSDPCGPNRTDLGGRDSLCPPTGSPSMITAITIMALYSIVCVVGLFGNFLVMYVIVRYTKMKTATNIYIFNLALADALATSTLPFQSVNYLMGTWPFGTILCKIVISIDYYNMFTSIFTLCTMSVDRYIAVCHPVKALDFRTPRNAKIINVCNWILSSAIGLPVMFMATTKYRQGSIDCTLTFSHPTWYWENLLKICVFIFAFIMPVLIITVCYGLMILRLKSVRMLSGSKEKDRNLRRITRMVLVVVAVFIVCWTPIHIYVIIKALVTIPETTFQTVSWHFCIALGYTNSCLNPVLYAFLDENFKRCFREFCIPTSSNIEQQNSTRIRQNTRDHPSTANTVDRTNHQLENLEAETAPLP
T11 sequence (P25103 whole entry): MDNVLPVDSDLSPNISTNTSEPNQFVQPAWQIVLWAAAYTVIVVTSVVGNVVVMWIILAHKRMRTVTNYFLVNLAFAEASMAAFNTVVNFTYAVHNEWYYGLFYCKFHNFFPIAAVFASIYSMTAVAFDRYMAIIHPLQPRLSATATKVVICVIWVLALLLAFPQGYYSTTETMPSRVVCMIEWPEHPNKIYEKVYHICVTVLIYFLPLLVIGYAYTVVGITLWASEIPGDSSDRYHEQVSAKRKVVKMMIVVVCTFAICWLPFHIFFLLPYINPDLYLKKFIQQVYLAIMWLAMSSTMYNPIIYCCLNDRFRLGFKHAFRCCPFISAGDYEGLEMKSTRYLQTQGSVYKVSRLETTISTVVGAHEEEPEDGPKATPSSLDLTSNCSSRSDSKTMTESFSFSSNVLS
T5 sequence (P33032 whole entry): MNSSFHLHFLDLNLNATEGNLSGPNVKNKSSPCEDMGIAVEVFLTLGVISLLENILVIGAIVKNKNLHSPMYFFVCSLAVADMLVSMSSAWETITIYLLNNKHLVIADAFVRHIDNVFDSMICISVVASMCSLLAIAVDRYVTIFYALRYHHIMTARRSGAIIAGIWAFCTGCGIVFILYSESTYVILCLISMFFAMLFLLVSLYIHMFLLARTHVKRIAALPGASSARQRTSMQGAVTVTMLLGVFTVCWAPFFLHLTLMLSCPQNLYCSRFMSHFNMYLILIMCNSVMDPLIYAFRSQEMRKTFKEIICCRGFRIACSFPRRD
T9 sequence (Q99705 whole entry): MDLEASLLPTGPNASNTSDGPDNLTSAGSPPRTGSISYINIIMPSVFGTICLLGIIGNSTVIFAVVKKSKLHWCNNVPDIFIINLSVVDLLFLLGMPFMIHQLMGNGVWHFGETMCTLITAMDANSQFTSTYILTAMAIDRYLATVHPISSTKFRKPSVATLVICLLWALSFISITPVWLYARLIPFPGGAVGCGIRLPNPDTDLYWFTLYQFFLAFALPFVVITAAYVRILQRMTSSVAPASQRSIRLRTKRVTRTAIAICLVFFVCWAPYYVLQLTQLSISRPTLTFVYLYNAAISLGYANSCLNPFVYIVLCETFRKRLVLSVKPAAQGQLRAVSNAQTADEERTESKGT

SMILES | A7: inhibition of radioligand binding, human μ-opioid (MOP) (Human μ-opioid (MOP)) | A4: inhibition of radioligand binding, human melanocortin (MC4) (Human Melanocortin (MC4)) | A1: inhibition of radioligand binding, human δ-opioid (DOP) (Human δ-opioid (DOP)) | A2: inhibition of radioligand binding, human κ-opioid (KOP) (Human κ-Opioid (KOP)) | A5: inhibition of radioligand binding, human melanocortin (MC5) (Human melanocortin (MC5)) | A9: inhibition of radioligand binding, human neuropeptide Y (NPY-Y1) [1] | A10: inhibition of radioligand binding, human opioid (ORL1) (Human opioid (ORL1)) | A11: inhibition of radioligand binding, mouse urotensin (mUR2) (Mouse urotensin (mUR2)) | A6: inhibition of radioligand binding, human melanin-concentrating hormone (MCH1) [2] | A3: inhibition of radioligand binding, human melanocortin (MC3) (Human Melanocortin (MC3)) | A8: inhibition of radioligand binding, human neurokinin (NK1) (Human neurokinin (NK1)) | other results
NCCC(=O)N[C@H]1C(OCc2ccc3ccccc3c2)O[C@H](COCc2ccc(Cl)cc2)[C@@H](O)[C@@H]1OCc1ccc(Cl)cc1 (stereo partly shown) [compound 441] |  |  |  |  |  |  |  |  |  |  |  | A7: inhibition of radioligand binding (Human μ-opioid (MOP); human MOP membranes): − (“−” indicates less than 50% inhibition at 10 μM); A4: inhibition of radioligand binding (Human Melanocortin (MC4); human MC4 membranes, 10 µM): + (“+” indicates greater than 50% inhibition at 10 μM); A1: inhibition of radioligand binding (Human δ-opioid (DOP); human DOP membranes): − (“−” indicates less than 50% inhibition at 10 μM); A2: inhibition of radioligand binding (Human κ-Opioid (KOP); human KOP membranes): − (“−” indicates less than 50% inhibition at 10 μM); A5: inhibition of radioligand binding (Human melanocortin (MC5); human MC5 membranes): + (“+” indicates greater than 50% inhibition at 10 μM); A9: inhibition of radioligand binding ([1]; human NPY-Y1 membranes): − (“−” indicates less than 50% inhibition at 10 μM); A10: inhibition of radioligand binding (Human opioid (ORL1); human ORL1 membranes): − (“−” indicates less than 50% inhibition at 10 μM); A11: inhibition of radioligand binding (Mouse urotensin (mUR2); mouse mUR2 membranes): − (“−” indicates less than 50% inhibition at 10 μM); A6: inhibition of radioligand binding ([2]; [125I]-S36057, human MCH1 membranes): + (“+” indicates greater than 50% inhibition at 10 μM); A3: inhibition of radioligand binding (Human Melanocortin (MC3); human MC3 membranes, 10 µM): + (“+” indicates greater than 50% inhibition at 10 μM); A8: inhibition of radioligand binding (Human neurokinin (NK1); human NK1 membranes): + (“+” indicates greater than 50% inhibition at 10 μM)
CSC1OC(COCc2ccc3ccccc3c2)C(O)C(OCc2ccccc2)C1NC(=O)CNC(=N)N (stereo not shown) [compound 260] |  |  |  |  |  |  |  |  |  |  |  | A7: inhibition of radioligand binding (Human μ-opioid (MOP); FlashPlate): − (“−” indicates less than 50% inhibition at 10 μM); A4: inhibition of radioligand binding (Human Melanocortin (MC4); FlashPlate): + (“+” indicates greater than 50% inhibition at 10 μM); A1: inhibition of radioligand binding (Human δ-opioid (DOP); FlashPlate): − (“−” indicates less than 50% inhibition at 10 μM); A2: inhibition of radioligand binding (Human κ-Opioid (KOP); filtration): − (“−” indicates less than 50% inhibition at 10 μM); A5: inhibition of radioligand binding (Human melanocortin (MC5); FlashPlate): − (“−” indicates less than 50% inhibition at 10 μM); A9: inhibition of radioligand binding ([1]; FlashPlate): − (“−” indicates less than 50% inhibition at 10 μM); A10: inhibition of radioligand binding (Human opioid (ORL1); FlashPlate): − (“−” indicates less than 50% inhibition at 10 μM); A11: inhibition of radioligand binding (Mouse urotensin (mUR2); FlashPlate): − (“−” indicates less than 50% inhibition at 10 μM); A6: inhibition of radioligand binding ([2]; [125I]-S36057, FlashPlate): − (“−” indicates less than 50% inhibition at 10 μM); A3: inhibition of radioligand binding (Human Melanocortin (MC3); FlashPlate): − (“−” indicates less than 50% inhibition at 10 μM); A8: inhibition of radioligand binding (Human neurokinin (NK1); filtration): − (“−” indicates less than 50% inhibition at 10 μM)
CSC1OC(COCc2ccc(Cl)cc2)C(O)C(OCc2ccc3ccccc3c2)C1NC(=O)CCCNC(=N)N (stereo not shown) [compound 311] | − (“−” indicates less than 50% inhibition at 10 μM) | + (“+” indicates greater than 50% inhibition at 10 μM) | − (“−” indicates less than 50% inhibition at 10 μM) | − (“−” indicates less than 50% inhibition at 10 μM) | + (“+” indicates greater than 50% inhibition at 10 μM) | − (“−” indicates less than 50% inhibition at 10 μM) | − (“−” indicates less than 50% inhibition at 10 μM) | − (“−” indicates less than 50% inhibition at 10 μM) | − (“−” indicates less than 50% inhibition at 10 μM) | − (“−” indicates less than 50% inhibition at 10 μM) | + (“+” indicates greater than 50% inhibition at 10 μM) | 
CSC1OC(COCc2ccc3ccccc3c2)C(O)C(OCc2ccc3ccccc3c2)C1NC(=O)CCCNC(=N)N (stereo not shown) [compound 321] | − (“−” indicates less than 50% inhibition at 10 μM) | + (“+” indicates greater than 50% inhibition at 10 μM) | − (“−” indicates less than 50% inhibition at 10 μM) | − (“−” indicates less than 50% inhibition at 10 μM) | + (“+” indicates greater than 50% inhibition at 10 μM) | − (“−” indicates less than 50% inhibition at 10 μM) | − (“−” indicates less than 50% inhibition at 10 μM) | − (“−” indicates less than 50% inhibition at 10 μM) | + (“+” indicates greater than 50% inhibition at 10 μM) | + (“+” indicates greater than 50% inhibition at 10 μM) | + (“+” indicates greater than 50% inhibition at 10 μM) | 
NCCCC(=O)NC1C(OCc2ccccc2)OC(COCc2ccccc2)C(O)C1OCc1ccc2ccccc2c1 (stereo not shown) [compound 376] | − (“−” indicates less than 50% inhibition at 10 μM) | + (“+” indicates greater than 50% inhibition at 10 μM) | − (“−” indicates less than 50% inhibition at 10 μM) | − (“−” indicates less than 50% inhibition at 10 μM) | + (“+” indicates greater than 50% inhibition at 10 μM) | − (“−” indicates less than 50% inhibition at 10 μM) | − (“−” indicates less than 50% inhibition at 10 μM) | − (“−” indicates less than 50% inhibition at 10 μM) | − (“−” indicates less than 50% inhibition at 10 μM) | − (“−” indicates less than 50% inhibition at 10 μM) | + (“+” indicates greater than 50% inhibition at 10 μM) | 

From US20080009418A1, “Selective Inhibitors” (Alchemia LTD., priority 2004, published 2008)
